Data published in PMC4055737, “Forward Genetic Screening Identifies a Small Molecule That Blocks Toxoplasma gondii Growth by Inhibiting Both Host- and Parasite-Encoded Kinases” (PLoS Pathogens, 2014).
Counter-ions that a name gives are not always drawn.

Molecular target: T1, TgMAPK1 (Toxoplasma gondii, UniProt S8EUF0)
T1 construct: gene MAPKL1; full-length, endogenously C-terminally 3×HA-tagged TgMAPK1 (TGGT1_312570), immunoprecipitated from RH strain tachyzoite lysates
Assay: in vitro autokinase assay (γ[…]-ATP) on anti-HA immunoprecipitated kinase, dose response
Format: biochemical

T1 sequence (S8EUF0 whole entry): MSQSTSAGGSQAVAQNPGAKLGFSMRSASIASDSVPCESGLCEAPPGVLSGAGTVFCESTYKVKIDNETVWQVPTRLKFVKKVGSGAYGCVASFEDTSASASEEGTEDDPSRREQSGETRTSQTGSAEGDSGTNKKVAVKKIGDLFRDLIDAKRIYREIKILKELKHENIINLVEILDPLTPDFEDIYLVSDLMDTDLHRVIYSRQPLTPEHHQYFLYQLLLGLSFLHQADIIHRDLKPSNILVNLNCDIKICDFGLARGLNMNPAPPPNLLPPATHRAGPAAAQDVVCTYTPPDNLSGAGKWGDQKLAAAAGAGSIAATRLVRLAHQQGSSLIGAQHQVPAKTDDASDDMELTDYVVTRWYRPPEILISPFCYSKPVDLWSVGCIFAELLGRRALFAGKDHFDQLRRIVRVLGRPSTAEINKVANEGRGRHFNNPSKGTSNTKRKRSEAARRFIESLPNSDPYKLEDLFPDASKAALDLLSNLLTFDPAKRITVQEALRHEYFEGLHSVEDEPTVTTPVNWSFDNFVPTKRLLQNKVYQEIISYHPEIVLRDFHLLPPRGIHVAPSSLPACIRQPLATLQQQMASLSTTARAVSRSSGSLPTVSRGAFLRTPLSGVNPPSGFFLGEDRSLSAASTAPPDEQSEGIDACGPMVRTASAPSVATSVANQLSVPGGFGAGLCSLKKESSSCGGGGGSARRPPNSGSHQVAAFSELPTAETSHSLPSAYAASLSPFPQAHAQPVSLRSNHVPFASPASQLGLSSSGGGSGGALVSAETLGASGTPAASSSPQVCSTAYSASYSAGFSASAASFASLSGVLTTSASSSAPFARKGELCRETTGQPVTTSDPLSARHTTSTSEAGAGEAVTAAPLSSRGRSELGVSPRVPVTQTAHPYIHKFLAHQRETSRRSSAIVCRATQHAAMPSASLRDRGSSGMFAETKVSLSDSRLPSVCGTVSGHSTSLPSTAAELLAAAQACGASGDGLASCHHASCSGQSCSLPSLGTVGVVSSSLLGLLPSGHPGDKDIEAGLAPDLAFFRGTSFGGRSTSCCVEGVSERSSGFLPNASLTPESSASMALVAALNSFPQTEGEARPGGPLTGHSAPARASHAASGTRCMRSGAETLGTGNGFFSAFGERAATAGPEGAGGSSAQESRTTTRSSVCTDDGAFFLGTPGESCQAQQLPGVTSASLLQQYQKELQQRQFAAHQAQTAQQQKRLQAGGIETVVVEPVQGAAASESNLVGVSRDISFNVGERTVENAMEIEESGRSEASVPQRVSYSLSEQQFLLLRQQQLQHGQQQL

## Cc1cccc(-c2[nH]c(C(C)(C)C)nc2-c2ccc3c(c2)OCO3)n1 [SB505124, 2-(5-benzo[1,3]dioxol-5-yl-2-tert-butyl-3H-imidazol-4-yl)-6-methylpyridine hydrochloride]
  IC50: 125 nM
